Tests used:
[1] = biological target: human recombinant IRAK4 protein (Homo sapiens (Human), UniProt Q9NWZ3); experiment: IRAK4 enzyme assay (mass spectrometry readout); assay type: biochemical; conditions: 3 mM ATP, 0.2 nM enzyme; geometric mean of at least n=2, * single experiment
Description: Potency of IRAK4 Inhibitor Compounds in IRAK4 Enzyme Assay
The inhibitory activity of compounds against IRAK4 were determined in an enzymatic assay using mass spectrometry readout. Ten point half-log compound concentration response curves, with a top concentration of 1 μM or 10 μM, were generated from 10 mM stocks of compound solubilized in DMSO using an Echo 655 (Labcyte Inc) and added to 384 well assay plates (Greiner #781280). To the assay plates, 10 μL of human recombinant IRAK4 protein (Life Technologies #PV4002) diluted to a final concentration of 0.2 nM in assay buffer (50 mM Tris-HCl pH 7.4, 10 mM MgCl, 5 mM glutathione, 0.01% BSA, 3 mM ATP) was added. The enzyme was incubated with the compounds at room temperature for 15 minutes before a peptide substrate ([…], Innovagen custom synthesis, 10 mM in DMSO) was added to each well to a final concentration of 10 μM using an Echo 655 (Labcyte Inc). After two hours at room temperature, the reaction was stopped with 90 μL of 0.4% formic acid (Merck #33015). The unphosphorylated and phosphorylated peptide were measured by LC-MS/MS on a Waters TQ-S mass spectrometer. Peaks were integrated using the TargetLynx software and the ratios between phosphorylated and unphosphorylated peptides were calculated. Curves were fitted and compound potencies determined in Genedata Screener 15 (Genedata AG). Data presented are the geometric mean of at least n=2, or as denoted by an * are obtained from a single experiment.

[2] = biological target: IRAK4 auto-phosphorylation (Homo sapiens (Human), UniProt Q9NWZ3); experiment: IRAK4 phosphorylation cell assay in IL-1β-stimulated Karpas-299 cells; assay type: cell-based; conditions: IL-1β 22.7 ng/mL, pIRAK4 (Thr345/Ser346), geometric mean of at least 2 experiments
Description: IRAK4 Phosphorylation Cell Assay
The activation of IRAK4 by TLR or IL-1R ligands leads to IRAK4 auto-phosphorylation, which can be prevented by IRAK4 kinase inhibitors. The effect of IRAK4 inhibitor compounds on IRAK4 auto-phosphorylation was assessed in IL-1β-stimulated Karpas-299 cells as a measurement of cellular potency. Karpas-299 cells were cultured in RPMI 1640 (Gibco 61870-010) containing 10% FBS (Gibco #10270). Cells were plated at 2×10^4 cells per well in poly-D-lysine coated 384 well plates (Corning #356663) to which compounds had been added at various concentrations (10 point half log dose response with a final top concentration of 30 μM) using an Echo 655 (Labcyte Inc). Cells were centrifuged (250 g, 4 mins), incubated at 37° C. for 1 h, then stimulated with 22.7 ng/mL recombinant IL-1β (R&D Systems, #201-LB-025) at 37° C. for 10 mins, followed by fixation in 4% paraformaldehyde for 10 mins and permeabilization in ice-cold 70% MeOH for 30 mins. Cells were washed twice with phosphate-buffered saline (PBS) on a BlueWasher (BlueCatBio) then blocked with PBS containing 10% FBS for 20 mins. Blocking solution was removed with a BlueWasher and cells were stained with anti-pIRAK4 (Thr345/Ser346) (CST, #11927, 1:400) in blocking buffer with 0.05% Tween-20 for 1 h, then washed twice with PBS containing 0.05% Tween-20 on a BlueWasher, followed by staining with a Alexa 647-conjugated secondary anti-rabbit IgG antibody (CST, #4414, 1:2,000) and Hoechst 33342 (Sigma, 1:2,000) in blocking buffer with 0.05% Tween-20 for 30 mins. Finally, the cells were washed twice with PBS containing 0.05% Tween-20 and imaged on an ImageXpress Micro (Molecular Devices) with a 10× air objective using the appropriate filters. Images were analysed in Columbus (PerkinElmer) and the fluorescence intensity per cell from the secondary antibody was quantified. The quantified data were analysed in Genedata Screener 15 (Genedata AG). […] IC50 values are the geometric mean of at least 2 experiments.

Sequence of IRAK4 auto-phosphorylation (Q9NWZ3 whole entry): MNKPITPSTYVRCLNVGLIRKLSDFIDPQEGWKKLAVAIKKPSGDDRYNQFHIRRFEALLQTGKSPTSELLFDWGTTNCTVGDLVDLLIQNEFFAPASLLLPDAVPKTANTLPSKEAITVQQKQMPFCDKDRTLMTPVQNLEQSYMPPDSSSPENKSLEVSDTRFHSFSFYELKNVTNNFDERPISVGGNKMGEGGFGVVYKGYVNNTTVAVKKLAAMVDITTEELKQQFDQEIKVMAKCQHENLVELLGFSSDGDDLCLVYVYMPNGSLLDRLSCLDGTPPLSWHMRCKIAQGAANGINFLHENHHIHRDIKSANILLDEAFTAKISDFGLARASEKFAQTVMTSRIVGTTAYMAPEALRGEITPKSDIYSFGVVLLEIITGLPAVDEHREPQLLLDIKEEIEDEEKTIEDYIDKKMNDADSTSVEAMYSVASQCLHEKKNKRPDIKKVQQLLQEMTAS
Sequence of human recombinant IRAK4 protein (Q9NWZ3 whole entry): as above

| Compound | IC50 [1] [nM] | IC50 [2] [nM] |
| --- | --- | --- |
| 6-Cyclopropoxy-2-((1s,4s)-4-(N-methylacetamido)cyclohexyl)-N-(pyrazolo[1,5-a]pyrimidin-3-yl)-2H-indazole-5-carboxamide [Example 32] | 10.6 | 257 |
| COc1cc2nn([C@H]3CC[C@@H](O)C[C@@H]3C)cc2cc1C(=O)Nc1cnn2cccnc12 (relative stereo) [Example 40] |  | 158 |
| COc1cc2nn([C@H]3CC[C@@H](O)C[C@@H]3C)cc2cc1C(=O)Nc1cnn2cccnc12 (relative stereo) [Example 41] | 14.3 | 331 |
| C[C@H]1C[C@H](O)CC[C@@H]1n1cc2cc(C(=O)Nc3cnn4cccnc34)c(OC3CC3)cc2n1 (relative stereo) [Example 42, rel-6-Cyclopropoxy-2-(1S,2S,4R)-4-hydroxy-2-methylcyclohexyl)-N-(pyrazolo[1,5-a]pyrimidin-3-yl)-2H-indazole-5-carboxamide] |  | 89 |
| C[C@H]1C[C@H](O)CC[C@@H]1n1cc2cc(C(=O)Nc3cnn4cccnc34)c(OC3CC3)cc2n1 (relative stereo) [Example 43, rel-6-Cyclopropoxy-2-(1S,2S,4R)-4-hydroxy-2-methylcyclohexyl)-N-(pyrazolo[1,5-a]pyrimidin-3-yl)-2H-indazole-5-carboxamide] | 1.8 | 101 |
| C[C@@]1(O)CCC[C@H](n2cc3cc(C(=O)Nc4cnn5cccnc45)c(OC4CC4)cc3n2)C1 (relative stereo) [Example 54, rel-6-cyclopropoxy-2-(1S,3R)-3-hydroxy-3-methylcyclohexyl)-N-(pyrazolo[1,5-a]pyrimidin-3-yl)-2H-indazole-5-carboxamide] |  | 25 |
| C[C@@]1(O)CCC[C@H](n2cc3cc(C(=O)Nc4cnn5cccnc45)c(OC4CC4)cc3n2)C1 (relative stereo) [Example 55, rel-6-cyclopropoxy-2-(1S,3R)-3-hydroxy-3-methylcyclohexyl)-N-(pyrazolo[1,5-a]pyrimidin-3-yl)-2H-indazole-5-carboxamide] | 0.7 | 51 |
| COc1cc2nn([C@@H]3CC[C@]4(CC(=O)N(C)C4)C[C@H]3C)cc2cc1C(=O)Nc1cnc2cccnn12 (relative stereo) [Example 70, rel-2-(5R,7R,8R)-2,7-Dimethyl-3-oxo-2-azaspiro[4.5]decan-8-yl)-N-(imidazo[1,2-b]pyridazin-3-yl)-6-methoxy-2H-indazole-5-carboxamide or rel-2-(5R,7S,8S)-2,7-Dimethyl-3-oxo-2-azaspiro[4.5]decan-8-yl)-N-(imidazo[1,2-b]pyridazin-3-yl)-6-methoxy-2H-indazole-5-carboxamide] | 0.4 | 9 |
| COc1cc2nn([C@@H]3CC[C@]4(CC(=O)N(C)C4)C[C@H]3C)cc2cc1C(=O)Nc1cnc2cccnn12 (relative stereo) [Example 71, rel-2-(5R,7R,8R)-2,7-Dimethyl-3-oxo-2-azaspiro[4.5]decan-8-yl)-N-(imidazo[1,2-b]pyridazin-3-yl)-6-methoxy-2H-indazole-5-carboxamide or rel-2-(5R,7S,8S)-2,7-Dimethyl-3-oxo-2-azaspiro[4.5]decan-8-yl)-N-(imidazo[1,2-b]pyridazin-3-yl)-6-methoxy-2H-indazole-5-carboxamide] | 1.9 | 30 |
| COc1cc2nn([C@@H]3CC[C@]4(CC(=O)N(C)C4)C[C@H]3C)cc2cc1C(=O)Nc1cnc2cccnn12 (relative stereo) [Example 72, rel-2-(5R,7R,8R)-2,7-Dimethyl-3-oxo-2-azaspiro[4.5]decan-8-yl)-N-(imidazo[1,2-b]pyridazin-3-yl)-6-methoxy-2H-indazole-5-carboxamide or rel-2-(5R,7S,8S)-2,7-Dimethyl-3-oxo-2-azaspiro[4.5]decan-8-yl)-N-(imidazo[1,2-b]pyridazin-3-yl)-6-methoxy-2H-indazole-5-carboxamide] | 0.4 | 7 |
| COc1cc2nn([C@@H]3CC[C@]4(CC(=O)N(C)C4)C[C@H]3C)cc2cc1C(=O)Nc1cnc2cccnn12 (relative stereo) [Example 73, rel-2-(5R,7R,8R)-2,7-Dimethyl-3-oxo-2-azaspiro[4.5]decan-8-yl)-N-(imidazo[1,2-b]pyridazin-3-yl)-6-methoxy-2H-indazole-5-carboxamide or rel-2-(5R,7S,8S)-2,7-Dimethyl-3-oxo-2-azaspiro[4.5]decan-8-yl)-N-(imidazo[1,2-b]pyridazin-3-yl)-6-methoxy-2H-indazole-5-carboxamide] | 3.2 | 57 |
| COc1cc2nn([C@H]3CCC[C@H](O)[C@@H]3C)cc2cc1C(=O)Nc1cnc2cccnn12 (relative stereo) [Example 106, rel-2-(1S,2R,3S)-3-Hydroxy-2-methylcyclohexyl)-N-(imidazo[1,2-b]pyridazin-3-yl)-6-methoxy-2H-indazole-5-carboxamide] |  | 15 |
| COc1cc2nn([C@H]3CCC[C@H](O)[C@@H]3C)cc2cc1C(=O)Nc1cnc2cccnn12 (relative stereo) [Example 107, rel-2-(1S,2R,3S)-3-Hydroxy-2-methylcyclohexyl)-N-(imidazo[1,2-b]pyridazin-3-yl)-6-methoxy-2H-indazole-5-carboxamide] | 0.9 | 24 |
| COc1cc2nn([C@H]3CC[C@H](N(C)C(=O)[C@@H]4CC[C@@H](O)C4)CC3)cc2cc1C(=O)Nc1cnn2cccnc12 (relative stereo) [Example 112] | 0.7 | 21 |
| COc1cc2nn([C@H]3CC[C@H](N(C)C(=O)[C@@H]4CC[C@@H](O)C4)CC3)cc2cc1C(=O)Nc1cnn2cccnc12 (relative stereo) [Example 113] | 0.7 | 23 |
| COc1cc2nn([C@H]3CC[C@H](N(C)C(=O)[C@@H]4CC[C@H](O)C4)CC3)cc2cc1C(=O)Nc1cnn2cccnc12 (relative stereo) [Example 114] | 0.7 | 16 |
| COc1cc2nn([C@H]3CC[C@H](N(C)C(=O)[C@@H]4CC[C@H](O)C4)CC3)cc2cc1C(=O)Nc1cnn2cccnc12 (relative stereo) [Example 115] |  | 20 |
| COc1cc2nn([C@@H]3CC[C@]4(CCC(=O)N4C)C[C@H]3C)cc2cc1C(=O)Nc1cnc2cccnn12 (relative stereo) [Example 123, rel-2-(5S,7R,8R)-1,7-Dimethyl-2-oxo-1-azaspiro[4.5]decan-8-yl)-N-(imidazo[1,2-b]pyridazin-3-yl)-6-methoxy-2H-indazole-5-carboxamide] | 3 |  |
| COc1cc2nn(C3CCC4(CC3)CC(C)(O)C4)cc2cc1C(=O)Nc1cnc2cccnn12 (single isomer, unassigned) [Example 6, 2-(2-Hydroxy-2-methylspiro[3.5]nonan-7-yl)-N-(imidazo[1,2-b]pyridazin-3-yl)-6-methoxy-2H-indazole-5-carboxamide] | 0.7 | 44 |
| COc1cc2nn([C@H]3CCC[C@@H](O)C3)cc2cc1C(=O)Nc1cnc2cccnn12 (single isomer, unassigned) [Example 9] | 1.6 | 57 |
| COc1cc2nn([C@@H]3CC[C@H](O)[C@H](C)C3)cc2cc1C(=O)Nc1cnc2cccnn12 (single isomer, unassigned) [Example 76] | 2.3 |  |
| COc1cc2nn([C@H]3CC[C@H](N(C)C(=O)[C@H](C)O)CC3)cc2cc1C(=O)Nc1cnc2cccnn12 [Example 94, 2-((1S,4r)-4-((S)-2-Hydroxy-N-methylpropanamido)cyclohexyl)-N-(imidazo[1,2-b]pyridazin-3-yl)-6-methoxy-2H-indazole-5-carboxamide] |  | 10 |

— US11866405B2, “Substituted indazoles as IRAK4 inhibitors” (AstraZeneca AB, priority 2020, dated 2024)
